How the values were obtained:
[1] = target: recombinant G547 IRE1α KEN domain (Homo sapiens, UniProt O75460); test: IRE1α S724 autophosphorylation assay (DELFIA); type: biochemical; details: read-out: IRE1a autophosphorylation inhibition (DELFIA IC50 nM)
[2] = tested on: HEK293 cells stably expressing an XBP1u-luciferase mRNA reporter; details: read-out: HEK293 cytotoxicity (CellTitreBlue) IC50
[3] = target: recombinant dephosphorylated G547 IRE1α KEN domain (Homo sapiens, UniProt O75460); test: IRE1α ATP-site binding assay (LanthaScreen tracer displacement); details: read-out: IRE1a ATP site binding (LanthaScreen IC50 nM)
recombinant dephosphorylated G547 IRE1α KEN domain, sequence (O75460 547-977): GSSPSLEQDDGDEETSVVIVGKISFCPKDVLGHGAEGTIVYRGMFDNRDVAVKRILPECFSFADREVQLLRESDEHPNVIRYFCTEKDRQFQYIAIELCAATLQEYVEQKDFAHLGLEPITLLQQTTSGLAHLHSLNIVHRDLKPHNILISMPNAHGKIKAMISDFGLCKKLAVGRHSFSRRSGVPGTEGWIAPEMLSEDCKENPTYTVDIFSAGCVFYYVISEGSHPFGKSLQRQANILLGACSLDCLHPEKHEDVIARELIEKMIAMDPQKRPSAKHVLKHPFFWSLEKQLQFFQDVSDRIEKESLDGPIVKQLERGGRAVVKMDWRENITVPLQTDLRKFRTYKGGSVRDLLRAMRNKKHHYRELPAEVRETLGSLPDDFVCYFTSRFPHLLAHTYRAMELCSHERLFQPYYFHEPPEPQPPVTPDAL

[4] = tested on: IRE1α-dependent splicing of XBP1u-luciferase mRNA reporter in HEK293 cells; test: XBP1 luciferase fusion mRNA splicing reporter in HEK293 cells; type: cell-based, human; details: HEK293TN; read-out: XBP1 reporter cleavage in HEK293TN IC50

recombinant G547 IRE1α KEN domain, sequence (O75460 547-977): as above

Row | Structure (SMILES) | IC50 [1] [nM] | IC50 [2] [µM] | IC50 [3] [nM] | IC50 [4] [µM]
1 | Fc1cc(F)cc(Cn2cc(-c3ccnc4[nH]cnc34)cn2)c1 [Control A, 7-(1-(3,5-difluorobenzyl)-1H-pyrazol-4-yl)-3H-imidazo[4,5-b]pyridine, reference compound] | 3110 | > 50 | 3280 | 6.2
2 | CC(C)Nc1cc(Cl)nn2c(-c3ccc4[nH]ncc4c3)cnc12 [compound 33] | 276 |  | 736 | 
